From the NIST ThermoML archive (doi:10.1021/je101361u)
± gives the expanded uncertainty stated by the source.

Assay: xn = mol fraction of the nth substance listed
Conditions: 101.3 kPa, Liquid, Vibrating tube method

COCCOCCOC [2,5,8-trioxanonane] + ClCCCl
mass density (283.15 K, x2 = 0.0252): 958.22 ± 0.25 kg/m3
mass density (283.15 K, x2 = 0.0508): 963.01 ± 0.24 kg/m3
mass density (283.15 K, x2 = 0.0751): 967.64 ± 0.24 kg/m3
mass density (283.15 K, x2 = 0.1): 972.47 ± 0.23 kg/m3
mass density (283.15 K, x2 = 0.1502): 982.62 ± 0.22 kg/m3
mass density (283.15 K, x2 = 0.1999): 993.12 ± 0.22 kg/m3
mass density (283.15 K, x2 = 0.25): 1004.25 ± 0.21 kg/m3
mass density (283.15 K, x2 = 0.3002): 1015.91 ± 0.21 kg/m3
mass density (283.15 K, x2 = 0.3501): 1028.01 ± 0.21 kg/m3
mass density (283.15 K, x2 = 0.4): 1040.79 ± 0.22 kg/m3
mass density (283.15 K, x2 = 0.45): 1054.2 ± 0.22 kg/m3
mass density (283.15 K, x2 = 0.5003): 1068.49 ± 0.22 kg/m3
mass density (283.15 K, x2 = 0.5499): 1083.31 ± 0.23 kg/m3
mass density (283.15 K, x2 = 0.5999): 1098.98 ± 0.24 kg/m3
mass density (283.15 K, x2 = 0.6501): 1115.77 ± 0.25 kg/m3
mass density (283.15 K, x2 = 0.7): 1133.3 ± 0.26 kg/m3
mass density (283.15 K, x2 = 0.75): 1151.98 ± 0.27 kg/m3
mass density (283.15 K, x2 = 0.8): 1172.08 ± 0.28 kg/m3
mass density (283.15 K, x2 = 0.8499): 1193.31 ± 0.3 kg/m3
mass density (283.15 K, x2 = 0.9): 1216.25 ± 0.31 kg/m3
mass density (283.15 K, x2 = 0.925): 1228.27 ± 0.33 kg/m3
mass density (283.15 K, x2 = 0.9494): 1240.66 ± 0.34 kg/m3
mass density (283.15 K, x2 = 0.975): 1253.89 ± 0.34 kg/m3
mass density (288.15 K, x2 = 0): 948.72 ± 0.23 kg/m3
mass density (288.15 K, x2 = 0.0252): 953.25 ± 0.25 kg/m3
mass density (288.15 K, x2 = 0.0508): 958.01 ± 0.24 kg/m3
mass density (288.15 K, x2 = 0.0751): 962.62 ± 0.24 kg/m3
mass density (288.15 K, x2 = 0.1): 967.4 ± 0.23 kg/m3
mass density (288.15 K, x2 = 0.1502): 977.49 ± 0.22 kg/m3
mass density (288.15 K, x2 = 0.1999): 987.92 ± 0.22 kg/m3
mass density (288.15 K, x2 = 0.25): 998.97 ± 0.21 kg/m3
mass density (288.15 K, x2 = 0.3002): 1010.56 ± 0.21 kg/m3
mass density (288.15 K, x2 = 0.3501): 1022.59 ± 0.21 kg/m3
mass density (288.15 K, x2 = 0.4): 1035.28 ± 0.21 kg/m3
mass density (288.15 K, x2 = 0.45): 1048.58 ± 0.22 kg/m3
mass density (288.15 K, x2 = 0.5003): 1062.78 ± 0.22 kg/m3
mass density (288.15 K, x2 = 0.5499): 1077.45 ± 0.23 kg/m3
mass density (288.15 K, x2 = 0.5999): 1093.07 ± 0.23 kg/m3
mass density (288.15 K, x2 = 0.6501): 1109.73 ± 0.24 kg/m3
mass density (288.15 K, x2 = 0.7): 1127.26 ± 0.25 kg/m3
mass density (288.15 K, x2 = 0.75): 1145.68 ± 0.27 kg/m3
mass density (288.15 K, x2 = 0.8): 1165.61 ± 0.28 kg/m3
mass density (288.15 K, x2 = 0.8499): 1186.69 ± 0.3 kg/m3
mass density (288.15 K, x2 = 0.9): 1209.44 ± 0.31 kg/m3
mass density (288.15 K, x2 = 0.925): 1221.36 ± 0.33 kg/m3
mass density (288.15 K, x2 = 0.9494): 1233.66 ± 0.34 kg/m3
mass density (288.15 K, x2 = 0.975): 1246.79 ± 0.34 kg/m3
mass density (293.15 K, x2 = 0.0252): 948.26 ± 0.25 kg/m3
mass density (293.15 K, x2 = 0.0508): 952.99 ± 0.24 kg/m3
mass density (293.15 K, x2 = 0.0751): 957.57 ± 0.24 kg/m3
mass density (293.15 K, x2 = 0.1): 962.33 ± 0.23 kg/m3
mass density (293.15 K, x2 = 0.1502): 972.35 ± 0.22 kg/m3
mass density (293.15 K, x2 = 0.1999): 982.7 ± 0.22 kg/m3
mass density (293.15 K, x2 = 0.25): 993.69 ± 0.21 kg/m3
mass density (293.15 K, x2 = 0.3002): 1005.2 ± 0.21 kg/m3
mass density (293.15 K, x2 = 0.3501): 1017.14 ± 0.21 kg/m3
mass density (293.15 K, x2 = 0.4): 1029.75 ± 0.21 kg/m3
mass density (293.15 K, x2 = 0.45): 1042.96 ± 0.21 kg/m3
mass density (293.15 K, x2 = 0.5003): 1057.05 ± 0.22 kg/m3
mass density (293.15 K, x2 = 0.5499): 1071.62 ± 0.22 kg/m3
mass density (293.15 K, x2 = 0.5999): 1087.13 ± 0.23 kg/m3
mass density (293.15 K, x2 = 0.6501): 1103.67 ± 0.24 kg/m3
mass density (293.15 K, x2 = 0.7): 1121.07 ± 0.25 kg/m3
mass density (293.15 K, x2 = 0.75): 1139.34 ± 0.26 kg/m3
mass density (293.15 K, x2 = 0.8): 1159.12 ± 0.28 kg/m3
mass density (293.15 K, x2 = 0.8499): 1180.04 ± 0.29 kg/m3
mass density (293.15 K, x2 = 0.9): 1202.6 ± 0.31 kg/m3
mass density (293.15 K, x2 = 0.925): 1214.42 ± 0.32 kg/m3
mass density (293.15 K, x2 = 0.9494): 1226.62 ± 0.33 kg/m3
mass density (293.15 K, x2 = 0.975): 1239.64 ± 0.34 kg/m3
mass density (298.15 K, x2 = 0.0252): 943.26 ± 0.25 kg/m3
mass density (298.15 K, x2 = 0.0508): 947.97 ± 0.24 kg/m3
mass density (298.15 K, x2 = 0.0751): 952.52 ± 0.24 kg/m3
mass density (298.15 K, x2 = 0.1): 957.24 ± 0.23 kg/m3
mass density (298.15 K, x2 = 0.1502): 967.19 ± 0.22 kg/m3
mass density (298.15 K, x2 = 0.1999): 977.48 ± 0.22 kg/m3
mass density (298.15 K, x2 = 0.25): 988.39 ± 0.21 kg/m3
mass density (298.15 K, x2 = 0.3002): 999.83 ± 0.2 kg/m3
mass density (298.15 K, x2 = 0.3501): 1011.69 ± 0.2 kg/m3
mass density (298.15 K, x2 = 0.4): 1024.2 ± 0.21 kg/m3
mass density (298.15 K, x2 = 0.45): 1037.32 ± 0.21 kg/m3
mass density (298.15 K, x2 = 0.5003): 1051.31 ± 0.22 kg/m3
mass density (298.15 K, x2 = 0.5499): 1065.77 ± 0.22 kg/m3
mass density (298.15 K, x2 = 0.5999): 1081.17 ± 0.23 kg/m3
mass density (298.15 K, x2 = 0.6501): 1097.58 ± 0.24 kg/m3
mass density (298.15 K, x2 = 0.7): 1114.85 ± 0.25 kg/m3
mass density (298.15 K, x2 = 0.75): 1132.98 ± 0.26 kg/m3
mass density (298.15 K, x2 = 0.8): 1152.61 ± 0.27 kg/m3
mass density (298.15 K, x2 = 0.8499): 1173.37 ± 0.29 kg/m3
mass density (298.15 K, x2 = 0.9): 1195.74 ± 0.3 kg/m3
mass density (298.15 K, x2 = 0.925): 1207.47 ± 0.32 kg/m3
mass density (298.15 K, x2 = 0.9494): 1219.57 ± 0.33 kg/m3
mass density (298.15 K, x2 = 0.975): 1232.47 ± 0.33 kg/m3
mass density (303.15 K, x2 = 0.0252): 938.26 ± 0.25 kg/m3
mass density (303.15 K, x2 = 0.0508): 942.93 ± 0.24 kg/m3
mass density (303.15 K, x2 = 0.0751): 947.45 ± 0.24 kg/m3
mass density (303.15 K, x2 = 0.1): 952.14 ± 0.23 kg/m3
mass density (303.15 K, x2 = 0.1502): 962.02 ± 0.22 kg/m3
mass density (303.15 K, x2 = 0.1999): 972.24 ± 0.22 kg/m3
mass density (303.15 K, x2 = 0.25): 983.08 ± 0.21 kg/m3
mass density (303.15 K, x2 = 0.3002): 994.44 ± 0.2 kg/m3
mass density (303.15 K, x2 = 0.3501): 1006.21 ± 0.2 kg/m3
mass density (303.15 K, x2 = 0.4): 1018.64 ± 0.2 kg/m3
mass density (303.15 K, x2 = 0.45): 1031.66 ± 0.21 kg/m3
mass density (303.15 K, x2 = 0.5003): 1045.56 ± 0.21 kg/m3
mass density (303.15 K, x2 = 0.5499): 1059.91 ± 0.22 kg/m3
mass density (303.15 K, x2 = 0.5999): 1075.19 ± 0.23 kg/m3
mass density (303.15 K, x2 = 0.6501): 1091.48 ± 0.24 kg/m3
mass density (303.15 K, x2 = 0.7): 1108.62 ± 0.24 kg/m3
mass density (303.15 K, x2 = 0.75): 1126.61 ± 0.26 kg/m3
mass density (303.15 K, x2 = 0.8): 1146.07 ± 0.27 kg/m3
mass density (303.15 K, x2 = 0.8499): 1166.67 ± 0.29 kg/m3
mass density (303.15 K, x2 = 0.9): 1188.86 ± 0.3 kg/m3
mass density (303.15 K, x2 = 0.925): 1200.48 ± 0.32 kg/m3
mass density (303.15 K, x2 = 0.9494): 1212.48 ± 0.33 kg/m3
mass density (303.15 K, x2 = 0.975): 1225.28 ± 0.33 kg/m3
mass density (308.15 K, x2 = 0.0252): 933.23 ± 0.25 kg/m3
mass density (308.15 K, x2 = 0.0508): 937.88 ± 0.24 kg/m3
mass density (308.15 K, x2 = 0.0751): 942.36 ± 0.24 kg/m3
mass density (308.15 K, x2 = 0.1): 947.02 ± 0.23 kg/m3
mass density (308.15 K, x2 = 0.1502): 956.85 ± 0.22 kg/m3
mass density (308.15 K, x2 = 0.1999): 966.98 ± 0.22 kg/m3
mass density (308.15 K, x2 = 0.25): 977.75 ± 0.21 kg/m3
mass density (308.15 K, x2 = 0.3002): 989.03 ± 0.2 kg/m3
mass density (308.15 K, x2 = 0.3501): 1000.72 ± 0.2 kg/m3
